Data: paper PMC12345172, “Uptake of fucosylated type I human milk oligosaccharide blocks by Bifidobacterium longum subsp. infantis” (mBio, 2025)
Where two headings read alike, the source gives them in different places.

What was measured:
Blon_0883 (BiGFL-BP) [1] = target: T1, Blon_0883 (BiGFL-BP) (Bifidobacterium longum, UniProt A0AAX1LHV4); assay: isothermal titration calorimetry; assay type: binding; details: 25 °C, pH 6.5, 10 mM sodium phosphate; one-site model; free protein in solution
T1 construct: gene msmE_4; mature peptide, amino acids 24-460, signal peptide removed; N-terminal TEV-cleavable His tag cut; E. coli BL21(DE3)
T1 sequence (A0AAX1LHV4 24-445): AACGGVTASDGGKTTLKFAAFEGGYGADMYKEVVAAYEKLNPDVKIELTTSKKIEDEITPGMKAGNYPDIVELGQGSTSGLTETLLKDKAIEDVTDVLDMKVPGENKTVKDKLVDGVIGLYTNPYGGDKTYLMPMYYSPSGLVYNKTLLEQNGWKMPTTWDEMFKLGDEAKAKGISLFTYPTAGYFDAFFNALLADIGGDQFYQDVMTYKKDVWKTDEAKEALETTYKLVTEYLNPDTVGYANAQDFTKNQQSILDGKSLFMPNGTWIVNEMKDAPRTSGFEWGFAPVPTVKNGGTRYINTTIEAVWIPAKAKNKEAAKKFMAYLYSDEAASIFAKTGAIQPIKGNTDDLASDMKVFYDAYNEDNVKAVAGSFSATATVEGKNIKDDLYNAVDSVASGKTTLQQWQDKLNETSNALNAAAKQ
Source text: isothermal titration calorimetry on Blon_0883 (BiGFL-BP)

Blon_0883 (BiGFL-BP) [2] = target: T1, Blon_0883 (BiGFL-BP); design: SPR (Biacore T100), immobilized Blon_0883 on CM5 chip, 25 °C, pH 6.5; kinetic and steady-state fits; details: binder
Protocol: (§1) Affinity of Blon_0883 to oligosaccharides was also determined using a Biacore T100 (GE Healthcare). The protein was diluted into 10 mM sodium acetate (pH 4.2) to 2.0 µM and immobilized on a CM5 sensor chip using random amine coupling kit (GE Healthcare) to a density of 3,077 response units (RU) and the sensograms were recorded at 25°C in the same buffer used for the ITC (including 150 mM NaCl and 0.005% P20 surfactant) and analyzed as described ([24]). Experiments were performed in independent duplicates in the range 3.42–2,500 nM for LNB, GNB, Lewis A triose and Blood group H antigen triose. Binding was also tested using 0.1 µM–100 mM Lac, Gal, 3FL, 3SL, DFL LNT, and di-N-acetyl-lactosamine. The mature peptide of Blon_0883 was produced and purified to electrophoretic homogeneity. The binding affinity and thermodynamics of the transport protein were analyzed using isothermal titration calorimetry (ITC) and surface plasmon resonance (SPR) (Fig. 1; Fig. S1; Table S1). Among the tested ligands, the highest affinities were measured toward LNB and GNB. The binding of both ligands was driven by favorable enthalpy, similar to other saccharide-specific SBP ([21]) (Table 1). The Lewis a (Le^a) and blood group H type 1 antigen (H1) trisaccharides were both bound with about four-fold lower affinity than the preferred LNB ligand. […] Panels A through D depict representative binding isotherms based on technical triplicates. The circles are blank and reference-corrected binding levels, and the solid lines are the fits of a one binding site model to the steady state data. Panels E and F depict the blank and reference-corrected sensograms in gray, and the green lines are the global fits of a kinetic one site binding model to the binding sensograms.

Blon_0883 (BiGFL-BP) [3] = target: T1, Blon_0883 (BiGFL-BP); assay: biochemical; design: SPR (Biacore T100), immobilized Blon_0883 on CM5 chip, 25 °C, pH 6.5; kinetic and steady-state fits; details: SPR kinetic global fit; for kon: read-out: kon (×10^6 M^-1s^-1)
Protocol: as §1

Blon_0883 (BiGFL-BP) [4] = target: T1, Blon_0883 (BiGFL-BP); assay: surface plasmon resonance, steady state; assay type: binding; details: 25 °C, pH 6.5, 10 mM sodium phosphate, 150 mM NaCl, 0.005% P20; protein amine-coupled to CM5 chip
Source text: surface plasmon resonance, steady state on Blon_0883 (BiGFL-BP)

[5] = SPR kinetic global fit, read-out: Kd Kinetics

Row | Kd (Blon_0883 (BiGFL-BP) [1]) | Kd (Blon_0883 (BiGFL-BP) [2]; [5]) | Kd (Blon_0883 (BiGFL-BP) [2]; SPR steady-state fit) | koff (Blon_0883 (BiGFL-BP) [3]) | kon (Blon_0883 (BiGFL-BP) [3]) | Kd (Blon_0883 (BiGFL-BP) [4]) | Structure (SMILES)
1 | 169 nM | 42 nM | 62 ± 4 nM | 0.04 ± 0.003 s⁻¹ | 850000 ± 4000 M⁻¹ s⁻¹ |  | CC(=O)N[C@H]1C(O)O[C@H](CO)[C@H](O)[C@@H]1O[C@@H]1O[C@H](CO)[C@H](O)[C@H](O)[C@H]1O (stereo partly drawn) [GNB, Galβ1,3GalNAc]
2 |  | 37 nM |  | 0.17 ± 0.002 s⁻¹ | 4.8e+06 ± 60000 M⁻¹ s⁻¹ | 158 ± 9 nM | CC(=O)N[C@H]1C(O)O[C@H](CO)[C@@H](O)[C@@H]1O[C@@H]1O[C@H](CO)[C@H](O)[C@H](O)[C@H]1O[C@@H]1O[C@@H](C)[C@@H](O)[C@@H](O)[C@@H]1O (stereo partly drawn) [H1]
3 | 68.5 nM | 11 nM | 32.5 ± 3.2 nM | 0.16 ± 0.003 s⁻¹ | 1.46e+07 ± 30000 M⁻¹ s⁻¹ |  | CC(=O)N[C@H]1C(O)O[C@H](CO)[C@@H](O)[C@@H]1O[C@@H]1O[C@H](CO)[C@H](O)[C@H](O)[C@H]1O (stereo partly drawn) [LNB, Galβ1,3GlcNAc]
4 |  | 49 nM |  | 0.14 ± 0.0005 s⁻¹ | 3e+06 ± 10000 M⁻¹ s⁻¹ | 146 ± 12 nM | CC(=O)N[C@H]1C(O)O[C@H](CO)[C@@H](O[C@@H]2O[C@@H](C)[C@@H](O)[C@@H](O)[C@@H]2O)[C@@H]1O[C@@H]1O[C@H](CO)[C@H](O)[C@H](O)[C@H]1O (stereo partly drawn) [Le^a]
